“And” between values parts separate entries of the source, which are not always exact repeats. Identical values can stand only once. “Also recorded” adds a separate entry of the source.
Tests used:
[1] = tested on: castrate Sprague-Dawley rats; assay: Hershberger test, oral administration for seven days (ventral prostate weight); format: in vivo
Description: Immature (about 21-day-old) Sprague-Dawley rats were orchidectomized under anesthesia, and randomly assignee to groups of ten animals for each dose level of the active undergoing testing. Each active was dissolved in 10% ethanol/sesame oil and administered by gavage (oral) each day for seven days beginning on the date of the orchidectomy. The animals were sacrificed 24 hours after the last dose, and the ventral prostate and seminal vesicles were excised, cleaned of fat and connective tissue, blotted on moist filter paper and weighed to the nearest 0.1 mg. See, e.g., Hershberger, L. et al, Myotrophic Activity of 19-nortestosterone And Other Steroids Determined By Modified Levator And Muscle Method, Proc. Soc. Exptl. Biol. Med. 83 175-180 (1953). Regression analysis was performed by conventional methods using a PROPHET data management system. See, e.g., Bliss, C., The Statistics of Bioassay (Academic Press, New York, 1952); Hollister, C., Nucleic Acids Res. 16 1873-75 (1988). […]
Immature (about 21-day-old) Sprague-Dawley rats were orchidectomized under anesthesia, and randomly assignee to groups of ten animals for each dose level of the active undergoing testing. […] See, e.g., Hershberger, L. et al, Myotrophic Activity of 19-nortestosterone And Other Steroids Determined By Modified Levator And Muscle Method, Proc. Soc. […]

[2] = tested on: castrate Sprague-Dawley rats; assay: Hershberger test, subcutaneous administration for seven days (ventral prostate weight); format: in vivo; conditions: for Androgenic Potency of Corresponding Alcohol: ventral prostate weight assay following subcutaneous administration, alcohol of G = 1.0 (assigned), value is for the free alcohol of the listed ester; for Androgenic activity Potency Ratio, subcutaneous: subcutaneous daily for 7 days in 10% EtOH/sesame oil, testosterone subcutaneous standard = 1.0 (assigned), ventral prostate weight
Description: (§1) Immature (about 21-day-old) Sprague-Dawley rats were orchidectomized under anesthesia, and randomly assignee to groups of ten animals for each dose level of the active undergoing testing. Each active was dissolved in 10% ethanol/sesame oil and administered by gavage (oral) or subcutaneous injection each day for seven days beginning on the date of the orchidectomy. The animals were sacrificed 24 hours after the last dose, and the ventral prostate and seminal vesicles were excised, cleaned of fat and connective tissue, blotted on moist filter paper and weighed to the nearest 0.1 mg. Regression analysis was performed by conventional methods using a PROPHET data management system. Ventral prostate weight was used as the endpoint because it is the sensitive organ to androgenic stimulation.
Immature (about 21-day-old) Sprague-Dawley rats were orchidectomized under anesthesia, and randomly assignee to groups of ten animals for each dose level of the active undergoing testing. Each active was dissolved in 10% ethanol/sesame oil and administered by subcutaneous injection each day for seven days beginning on the date of the orchidectomy. The animals were sacrificed 24 hours after the last dose, and the ventral prostate and seminal vesicles were excised, cleaned of fat and connective tissue, blotted on moist filter paper and weighed to the nearest 0.1 mg. See, e.g., Hershberger, L. et al, Myotrophic Activity of 19-nortestosterone And Other Steroids Determined By Modified Levator And Muscle Method, Proc. Soc. Exptl. Biol. Med. 83 175-180 (1953). Regression analysis was performed by conventional methods using a PROPHET data management system. See, e.g., Bliss, C., The Statistics of Bioassay (Academic Press, New York, 1952); Hollister, C., Nucleic Acids Res. 16 1873-75 (1988). Ventral prostate weight was used as the endpoint because it is the sensitive organ to androgenic stimulation.

[3] = Serum levels of the free alcohol after a single subcutaneous injection; format: in vivo, Sprague-Dawley rats; conditions: single subcutaneous injection 0.6 mg in aqueous carrier, 10-week observation period
Description: (§2) Immature (about 21-day-old) Sprague-Dawley rats were orchidectomized under anesthesia, and randomly assignee to groups of 40 or more. Animals received a single subcutaneous injection of 0.6 mg of each ester in 0.2 ml of an aqueous suspending carrier and/or oily carrier (10% ethanol/90% sesame oil or ethyl oleate) on the date of the orchidectomy. In cases where the ester was not solid at room temperature, 10% ethanol/sesame oil or ethyl oleate was used as the carrier. In this example, the carrier used to provide the aqueous suspension was formulated as follows: 1 g benzyl alcohol, 0.5 g sodium carboxylethyl cellulose 50, 0.376 g disodium hydrogen phosphate dihydrate, 1.495 g sodium dihydrogen phosphate dihydrate, with water for injection (WFI) being added to bring volume of the carrier up to 100 ml.

[4] = tested on: castrate Sprague-Dawley rats; assay: Duration of activity after a single subcutaneous injection (ventral prostate weight over weeks, AUC); format: in vivo; conditions: for Long-term androgenic activity (ventral prostate weight over time), in words / AUC of ventral prostate weight (FIG. 5) / AUC of ventral prostate weight (FIG. 15): single subcutaneous injection; for AUC of ventral prostate weight (FIG. 5): n=5
Description: as §1, with “was” for “was dissolved in 10% ethanol/sesame oil and”, “by” for “by gavage (oral) or”
Except for testosterone enanthate, each active was formulated in two different carriers: (1) an aqueous suspension and (2) in sesame oil. Testosterone enanthate was formulated using the sesame oil carrier only, because it exists as a liquid at room temperature and could not therefore be formulated as an aqueous suspension.
(§3) The carrier used to provide the aqueous suspension was formulated as follows: 1 g benzyl alcohol, 0.5 g sodium carboxylethyl cellulose 50, 0.376 g disodium hydrogen phosphate dihydrate, 1.495 g sodium dihydrogen phosphate dihydrate, with water for injection (WFI) being added to bring volume of the carrier up to 100 ml.
Each formulation was prepared at a concentration of 0.6 mg/0.2 ml.
as §2
Five animals from each group were sacrificed at weekly or biweekly intervals, and the ventral prostate and seminal vesicles were excised, cleaned of fat and connective tissue, blotted on moist filter paper and weighed to the nearest 0.1 mg.
Ventral prostate weight was used as the endpoint because it is the sensitive organ to androgenic stimulation. Regression analysis was performed by conventional methods using the PROPHET data management system previously identified.
Immature (about 21-day-old) Sprague-Dawley rats were orchidectomized under anesthesia, and randomly assignee to groups of 40 or more. Animals received a single subcutaneous injection of 0.6 mg of the undecanoate in 0.2 ml of an aqueous suspending carrier and/or oily carrier (10% ethanol/90% sesame oil containing 5 mg/ml chlorobutanol as a preservative, or ethyloleate) on the date of the orchidectomy. The enanthate ester was formulated using the 10% ethanol/sesame oil or ethyloleate carrier as a first standard, with the 10% ethanol/sesame oil carrier used as a second standard.
as §3, with “In this example, the” for “The”

[5] = 0.6 mg, ASV (aqueous suspending vehicle)

Compound | Androgenic Potency of Corresponding Alcohol [2] | Long-term androgenic activity (ventral prostate weight over time), in words [4] | AUC of ventral prostate weight (FIG. 5) ([4]; 0.6 mg, S.O. (sesame oil)) | further results
CCCCCCCCCCC(=O)O[C@H]1CC[C@H]2[C@H]3[C@H]([C@@H](C)C[C@]12C)[C@H]1CCC(=O)C=C1C[C@H]3C [7α,11β-dimethyl-17β-hydroxyestr-4-en-3-one 17-undecanoate] |  |  |  | Androgenic activity Potency Ratio, oral ([1]; oral gavage daily for 7 days in 10% EtOH/sesame oil, methyltestosterone oral standard = 1.0 (assigned), ventral prostate weight): about twice that of methyltestosterone
CCCC[C@H]1CC[C@H](C(=O)O[C@H]2CC[C@H]3[C@H]4[C@H](CC[C@]23C)[C@H]2CCC(=O)C[C@@H]2C[C@H]4C)CC1 [B, 7α-Methyl-5α-dihydro-19-nortestosterone-17β-bucyclate] | 1.2 |  |  | 
CCCC[C@H]1CC[C@H](C(=O)O[C@H]2CC=C3[C@@H]4[C@H](C)CC5=CC(=O)CC[C@]5(C)[C@H]4CC[C@@]32C)CC1 [C, 7α-Methyl-14-dehydro-testosterone-17β-bucyclate] | 61.1 |  |  | 
CCCC[C@H]1CC[C@H](C(=O)O[C@H]2CC[C@H]3[C@H]4[C@H]([C@@H](C)C[C@]23C)[C@H]2CCC(=O)C=C2C[C@H]4C)CC1 (relative stereo) [CDB-4386A, 7α,11β-Dimethyl-17β-hydroxy-4-estren-3-one 17β-trans-4-n-butylcyclohexane carboxylate] | 19.3 | most dramatic increase and maintenance of ventral prostate weight; also recorded: greatest AUC over the 10-week period | 157 | Serum levels of the free alcohol (7α,11β-dimethyl-19-nortestosterone) [3]: highest levels of the free alcohol; AUC of ventral prostate weight (FIG. 5) [4, 5]: 1390
CCCCC1CCC(C(=O)OC2CCCC3C4C(C)CC5=CC(=O)CCC5(C)C4CCC23C)CC1 [D, 7α-Methyl-D-homo-testosterone-17β-bucyclate] | 36.4-61.7^3 |  |  | 
CCCC[C@H]1CC[C@H](C(=O)O[C@H]2CC[C@H]3[C@H]4[C@H](CC[C@]23C)[C@H]2CCC(=O)C=C2C[C@H]4C)CC1 [A, 7α-Methyl-19-nortestosterone-17β-bucyclate] | 8.1^3 |  |  | 
CCCC[C@H]1CC[C@H](C(=O)O[C@H]2CC=C3[C@H]4[C@H](CC[C@@]32C)[C@H]2CCC(=O)C=C2C[C@H]4C)CC1 [CDB-4327A, 7α-Methyl-14-dehydro-19-nortestosterone-17β-bucyclate] |  | surprising stimulation of ventral prostate size over the entire 20-week observation period |  | 
C[C@@H]1CC2=CC(=O)CC[C@@H]2[C@@H]2[C@@H]1[C@@H]1CC[C@H](O)[C@@]1(C)C[C@@H]2C [CDB-1321D, 7α,11β-Dimethyl-17β-hydroxy-4-estren-3-one] |  |  | 166 | AUC of ventral prostate weight (FIG. 5) [4, 5]: 460
CCCCC1CCC(C(=O)O[C@H]2CC[C@H]3[C@@H]4CCC5=CC(=O)CC[C@]5(C)[C@H]4CC[C@]23C)CC1 (stereo partly drawn) [CDB-1781a, Testosterone bucyclate] | 1.0 (assigned) | significantly less | 186 | AUC of ventral prostate weight (FIG. 5) ([4]; 1.0 mg, ASV (aqueous suspending vehicle)): 683
CCCCCCCCCCC(=O)O[C@H]1CC[C@H]2[C@H]3[C@H]([C@@H](C)C[C@]12C)[C@H]1CCC(=O)C=C1C[C@H]3C [CDB-4521A, 7α,11β-dimethyl-17β-hydroxyestr-4-en-3-one 17-undecanoate] |  | most dramatic increase and maintenance of ventral prostate weight |  | Androgenic activity Potency Ratio, oral, aqueous suspending vehicle ([1]; oral gavage daily for 7 days in aqueous suspending vehicle (ASV), methyltestosterone in same vehicle = 1.0 (assigned)): 0.95; Androgenic activity Potency Ratio, subcutaneous [2]: 0.52; AUC of ventral prostate weight relative to testosterone enanthate in sesame oil ([4]; single subcutaneous injection 0.6 mg, active in aqueous vehicle, 10 week period): about 3 times; AUC of ventral prostate weight (FIG. 15) ([4]; 0.6 mg, 10% EtOH/Sesame Oil, 10 week period): 620 mg-weeks; AUC of ventral prostate weight (FIG. 15) ([4]; 0.6 mg, Aqueous Suspending Vehicle, 10 week period): 1817 mg-weeks
CCCCC1CCC(C(=O)O[C@H]2CC[C@H]3[C@H]4[C@H]([C@H](C)C[C@]23C)[C@H]2CCC(=O)C=C2C[C@H]4C)CC1 (stereo partly drawn) [CDB-4386] |  | inactive; also recorded: relatively low activity |  | 
CCCCCCC(=O)O[C@H]1CC[C@H]2[C@@H]3CCC4=CC(=O)CC[C@]4(C)[C@H]3CC[C@]12C [CDB-112E, testosterone enanthate] |  |  | 497 | AUC of ventral prostate weight (FIG. 15) ([4]; 0.6 mg, 10% EtOH/Sesame Oil, 10 week period, listed as CDB-112F): 559 mg-weeks and 559.28 mg-weeks
C[C@]12CC[C@H]3[C@@H](CCC4=CC(=O)CC[C@@]43C)[C@@H]1CC[C@@H]2O [CDB-111C, testosterone] |  |  |  | Androgenic activity Potency Ratio, subcutaneous [2]: 1.00
